In patent US8067461B2, “3-acyl coumarins, thiochromones and quinolones and therapeutic uses thereof” (Temple University-Of The Commonwealth System of Higher …, priority 2005, dated 2011):
Where two headings read alike, the source gives them in different places.

What was measured:
[1] = target: CDK4/CyclinD1 (Homo sapiens, UniProt P11802); assay: In vitro kinase assay CDK4/CyclinD1, 32P incorporation into GST-Rb
[2] = target: T1, CDK1/CyclinB (Homo sapiens, UniProt P06493); assay: In vitro kinase assay CDK1/CyclinB, 32P incorporation into Histone H1; format: biochemical; conditions: recombinant human enzyme complex, average of two independent experiments in triplicate
T1 construct: purchased Upstate USA, Charlottesville, Va

[3] = system: DU145 Cells; assay: Cytotoxicity on DU145 tumor cells, viable cells by Trypan blue exclusion; format: cell-based, human; conditions: DU145 prostate cell line, 96 h continuous treatment, five concentrations (1-100 μM range)
Experimental: The effect of compounds according to Formula I on the growth of human tumor cells in culture was evaluated using the androgen receptor negative prostate cell line DU145. All cell cultures were maintained at 37° C. in a humidified atmosphere of 5% CO2.
Cells were treated with compounds according to Formula I at five different concentrations (1-100 μM range) for each compound. The dose response of each cell line was established by determining the number of viable cells after 96 h of continuous treatment against each of the different test concentrations of each compound. The determination of viable cells was done by the by the Trypan blue exclusion method. An IC50 (μM) for each compound was determined.

[4] = target: T2, CDK9/CyclinT1 (Homo sapiens, UniProt P50750); assay: In vitro kinase assay CDK9/CyclinT1, 32P incorporation into RNA Polymerase II carboxy terminal domain; format: biochemical; conditions: recombinant human enzyme complex, average of two independent experiments in triplicate
T2 construct: purchased Upstate USA, Charlottesville, Va

[5] = target: T3, CDK2/CylinE (Homo sapiens, UniProt P24941); assay: In vitro kinase assay CDK2/CylinE, 32P incorporation into Histone H1; format: biochemical; conditions: recombinant human enzyme complex, average of two independent experiments in triplicate
T3 construct: purchased Upstate USA, Charlottesville, Va

T2 sequence (P50750 whole entry, the tested form may be a part): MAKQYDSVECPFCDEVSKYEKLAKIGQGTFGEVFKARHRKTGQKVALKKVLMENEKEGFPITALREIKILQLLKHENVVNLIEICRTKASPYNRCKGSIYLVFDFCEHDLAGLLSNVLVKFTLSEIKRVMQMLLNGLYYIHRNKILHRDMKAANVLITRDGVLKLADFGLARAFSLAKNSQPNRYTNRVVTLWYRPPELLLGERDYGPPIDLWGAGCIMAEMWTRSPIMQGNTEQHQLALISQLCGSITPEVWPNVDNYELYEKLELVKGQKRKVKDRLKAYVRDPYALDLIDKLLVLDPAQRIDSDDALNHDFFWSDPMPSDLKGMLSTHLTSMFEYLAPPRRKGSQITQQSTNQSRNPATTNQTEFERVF
T2 sequence (O60563 whole entry partner, the tested form may be a part): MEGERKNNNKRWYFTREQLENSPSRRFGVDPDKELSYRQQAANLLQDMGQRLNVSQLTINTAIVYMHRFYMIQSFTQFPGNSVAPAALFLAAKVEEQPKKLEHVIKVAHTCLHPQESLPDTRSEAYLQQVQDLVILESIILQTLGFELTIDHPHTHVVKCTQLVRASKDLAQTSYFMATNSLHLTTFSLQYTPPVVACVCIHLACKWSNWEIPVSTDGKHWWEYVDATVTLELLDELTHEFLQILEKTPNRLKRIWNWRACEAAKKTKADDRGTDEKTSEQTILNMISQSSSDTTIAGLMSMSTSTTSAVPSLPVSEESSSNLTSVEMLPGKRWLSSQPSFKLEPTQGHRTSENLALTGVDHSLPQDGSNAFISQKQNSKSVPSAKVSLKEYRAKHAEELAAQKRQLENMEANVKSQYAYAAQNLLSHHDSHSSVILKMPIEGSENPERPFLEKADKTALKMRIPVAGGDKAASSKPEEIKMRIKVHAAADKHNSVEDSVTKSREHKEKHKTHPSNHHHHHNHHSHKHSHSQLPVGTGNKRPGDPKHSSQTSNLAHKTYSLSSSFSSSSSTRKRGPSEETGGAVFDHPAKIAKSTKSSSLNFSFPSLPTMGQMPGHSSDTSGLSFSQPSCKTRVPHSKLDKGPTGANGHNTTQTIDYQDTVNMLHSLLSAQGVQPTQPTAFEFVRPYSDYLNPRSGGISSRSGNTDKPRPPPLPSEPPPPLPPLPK
T1 sequence (P06493 whole entry): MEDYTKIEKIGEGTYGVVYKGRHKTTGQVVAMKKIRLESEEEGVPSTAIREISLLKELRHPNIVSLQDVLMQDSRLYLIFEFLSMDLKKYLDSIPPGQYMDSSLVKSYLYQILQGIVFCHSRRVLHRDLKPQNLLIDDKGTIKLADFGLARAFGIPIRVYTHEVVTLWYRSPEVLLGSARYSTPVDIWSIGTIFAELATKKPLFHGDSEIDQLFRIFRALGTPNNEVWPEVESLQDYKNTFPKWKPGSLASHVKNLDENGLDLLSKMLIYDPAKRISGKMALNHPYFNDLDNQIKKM
T1 sequence (P14635 whole entry partner): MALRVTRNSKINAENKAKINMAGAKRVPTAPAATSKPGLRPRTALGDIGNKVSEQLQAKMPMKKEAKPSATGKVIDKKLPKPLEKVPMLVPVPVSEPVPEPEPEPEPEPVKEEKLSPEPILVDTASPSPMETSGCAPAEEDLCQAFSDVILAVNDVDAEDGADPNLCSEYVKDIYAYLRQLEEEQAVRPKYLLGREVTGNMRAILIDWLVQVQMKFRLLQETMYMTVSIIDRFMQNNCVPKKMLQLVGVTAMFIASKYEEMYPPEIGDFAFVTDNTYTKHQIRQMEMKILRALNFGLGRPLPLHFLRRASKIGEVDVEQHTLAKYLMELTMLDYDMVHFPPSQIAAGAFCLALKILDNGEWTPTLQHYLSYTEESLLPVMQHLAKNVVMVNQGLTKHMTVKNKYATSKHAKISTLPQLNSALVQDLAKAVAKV
Chain of CDK4/CyclinD1 (P11802 whole entry): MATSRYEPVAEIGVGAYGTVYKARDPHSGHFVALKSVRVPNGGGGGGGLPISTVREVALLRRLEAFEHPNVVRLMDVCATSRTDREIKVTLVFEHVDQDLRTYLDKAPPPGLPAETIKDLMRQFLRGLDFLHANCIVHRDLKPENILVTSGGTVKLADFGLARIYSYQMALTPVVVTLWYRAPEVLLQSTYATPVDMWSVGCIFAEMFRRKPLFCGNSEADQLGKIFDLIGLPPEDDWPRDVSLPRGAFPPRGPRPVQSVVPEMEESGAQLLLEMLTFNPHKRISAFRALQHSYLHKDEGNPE
Chain of CDK4/CyclinD1 (P24385 whole entry partner): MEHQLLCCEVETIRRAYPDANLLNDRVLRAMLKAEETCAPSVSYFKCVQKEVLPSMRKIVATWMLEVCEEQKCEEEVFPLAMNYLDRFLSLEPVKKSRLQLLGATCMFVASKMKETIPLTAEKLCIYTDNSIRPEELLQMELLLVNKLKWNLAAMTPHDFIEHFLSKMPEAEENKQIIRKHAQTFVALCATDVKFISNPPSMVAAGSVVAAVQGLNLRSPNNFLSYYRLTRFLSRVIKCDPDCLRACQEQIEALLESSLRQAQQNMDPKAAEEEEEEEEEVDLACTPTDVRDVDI

SMILES | IC50 [1] | IC50 [2] | IC50 ([3]; Homo sapiens, DU-145) | IC50 [4] | IC50 [5] | IC50 ([1]; read-out: CDK4 IC50, recombinant human enzyme complex, average of two independent experiments in triplicate) | IC50 [3]
O=C(c1cc2cc(OC(F)(F)F)ccc2oc1=O)c1cc2cc(OC(F)(F)F)ccc2oc1=O [Example 23, 6-trifluoromethoxy-3-[(6-tri-fluoromethoxy-2-oxochromen-3-yl)-carbonyl]chromen-2-one] | > 10 µM | > 10 µM |  |  |  |  | 
O=C(c1cc2cc(O)ccc2oc1=O)c1cc2cc(O)ccc2oc1=O [Example 18, 6-hydroxy-3-[(6-hydroxy-2-oxochromen-3-yl)carbonyl]chromen-2-one] | > 10 µM | > 10 µM | > 100 µM |  |  |  | 
O=C(c1cc2ccccc2oc1=O)c1cc2ccccc2oc1=O [Example 5] | > 10 µM | > 10 µM | > 100 µM |  |  |  | 
O=C(c1cc2cc(Br)ccc2oc1=O)c1cc2cc(Br)ccc2oc1=O [Example 1, 6-bromo-3-[(6-bromo-2-oxo-chromen-3-yl)carbonyl]chromen-2-one] | > 10 µM | > 10 µM | > 100 µM |  |  |  | 
O=C(c1cc2cc(Cl)cc(Br)c2oc1=O)c1cc2cc(Cl)cc(Br)c2oc1=O [Example 19, 6-chloro-8-bromo-3-[(6-chloro-8-bromo-2-oxochromen-3-yl)carbonyl]-chromen-2-one] | > 10 µM | 1 to 10 µM | 1 to 10 µM | 0.5 µM | 0.089 µM |  | 
COc1cc(Br)cc2cc(C(=O)c3cc4cc(Br)cc(OC)c4oc3=O)c(=O)oc12 [Example 16, 6-bromo-8-methoxy-3-[(6-bromo-8-methoxy-2-oxochromen-3-yl)-carbonyl]chromen-2-one] | > 10 µM | > 10 µM | 50 to 100 µM |  |  |  | 
O=C(c1cc2ccc(O)cc2oc1=O)c1cc2ccc(O)cc2oc1=O [Example 11, 7-hydroxy-3-[(7-hydroxy-2-oxo-chromen-3-yl)carbonyl]chromen-2-one] | > 10 µM | > 10 µM | > 100 µM |  |  |  | 
COc1ccc(Br)c2cc(C(=O)c3cc4c(Br)ccc(OC)c4oc3=O)c(=O)oc12 [Example 15, 5-bromo-8-methoxy-3-[(5-bromo-8-methoxy-2-oxochromen-3-yl)-carbonyl]chromen-2-one] | > 10 µM | > 10 µM | 25 to 50 µM |  |  |  | 
COc1cc(OC)c2cc(C(=O)c3cc4c(OC)cc(OC)cc4oc3=O)c(=O)oc2c1 [Example 3, 5,7-dimethoxy-3-[(5,7-dimethoxy-2-oxochromen-3-yl)carbonyl]chromen-2-one] | > 10 µM | > 10 µM | > 100 µM |  |  |  | 
O=C(c1cc2cc(F)ccc2oc1=O)c1cc2cc(F)ccc2oc1=O [Example 7, 6-fluoro-3-[(6-fluoro-2-oxochromen-3-yl)carbonyl]chromen-2-one] | > 10 µM | > 10 µM | > 100 µM |  |  |  | 
O=C(c1cc2cccc([N+](=O)[O-])c2oc1=O)c1cc2cccc([N+](=O)[O-])c2oc1=O [Example 24, 8-nitro-3-[(8-nitro-2-oxo-chromen-3-yl)carbonyl]chromen-2-one] | > 10 µM | > 10 µM |  |  |  |  | 
O=C(c1cc2cc(I)ccc2oc1=O)c1cc2cc(I)ccc2oc1=O [Example 8, 6-iodo-3-[(6-iodo-2-oxochromen-3-yl)carbonyl]chromen-2-one] | > 10 µM | > 10 µM | > 100 µM |  |  |  | 
O=C(c1cc2cc(Br)cc(Br)c2oc1=O)c1cc2cc(Br)cc(Br)c2oc1=O [Example 13, 6,8-dibromo-3-[(6,8-dibromo-2-oxochromen-3-yl)carbonyl]chromen-2-one] | 2.5 to 5 µM |  | 10 to 25 µM | 0.5 µM | 10 µM |  | 
O=C(c1cc2cc3ccccc3cc2oc1=O)c1cc2cc3ccccc3cc2oc1=O [Example 20, [(2-oxobenzo[g]chromen-3-yl)-carbonyl]benzo[g]chromen-2-one] |  | > 10 µM |  |  |  | > 10 µM | 25 to 50 µM
O=C(c1cc2cc(I)cc(I)c2oc1=O)c1cc2cc(I)cc(I)c2oc1=O [Example 29, 6,8-diiodo-3-[(6,8-diiodo-2-oxochromen-3-yl)carbonyl]chromen-2-one] | 0.04 µM |  | 10 to 20 µM |  |  |  | 
COc1ccc2cc(C(=O)c3cc4ccc(OC)cc4oc3=O)c(=O)oc2c1 [Example 2, 7-methoxy-3-[(7-methoxy-2-oxochromen-3-yl)carbonyl]chromen-2-one] | > 10 µM | > 10 µM | > 100 µM |  |  |  | 
O=C(c1cc2cc([N+](=O)[O-])ccc2oc1=O)c1cc2cc([N+](=O)[O-])ccc2oc1=O [Example 9, 6-nitro-3-[(6-nitro-2-oxochromen-3-yl)carbonyl]chromen-2-one] | > 10 µM | > 10 µM | 1 to 10 µM | 0.5 µM | 1.54 µM |  | 
CCOc1cccc2cc(C(=O)c3cc4cccc(OCC)c4oc3=O)c(=O)oc12 [Example 4, 8-ethoxy-3-[(8-ethoxy-2-oxochromen-3-yl)carbonyl]chromen-2-one] | > 10 µM | > 10 µM | > 100 µM |  |  |  | 
O=C(c1cc2cccc(O)c2oc1=O)c1cc2cccc(O)c2oc1=O [Example 17, 8-hydroxy-3-[(8-hydroxy-2-oxochromen-3-yl)carbonyl]chromen-2-one] | > 10 µM | > 10 µM | 25 to 50 µM |  |  |  | 
O=C(c1cc2cc(F)cc(F)c2oc1=O)c1cc2cc(F)cc(F)c2oc1=O [Example 14, 6,8-difluoro-3-[(6,8-difluoro-2-oxochromen-3-yl)carbonyl]chromen-2-one] | > 10 µM | > 10 µM | 10 to 25 µM |  |  |  | 
COc1cc([N+](=O)[O-])cc2cc(C(=O)c3cc4cc([N+](=O)[O-])cc(OC)c4oc3=O)c(=O)oc12 [Example 10, 8-methoxy-3-[(8-methoxy-6-nitro-2-oxo-chromen-3-yl)carbonyl]-6-nitro-chromen-2-one] | > 10 µM | > 10 µM | 10 to 25 µM | 0.5 µM | 0.549 µM |  | 
COc1cccc2oc(=O)c(C(=O)c3cc4c(OC)cccc4oc3=O)cc12 [Example 21, 5-methoxy-3-[(5-methoxy-2-oxochromen-3-yl)carbonyl]chromen-2-one] | > 10 µM | > 10 µM | 50 to 100 µM | 0.5 µM | 10 µM |  | 
Cc1ccc2oc(=O)c(C(=O)c3cc4cc(C)ccc4oc3=O)cc2c1 [Example 22, 6-methyl-3-[(6-methyl-2-oxochromen-3-yl)carbonyl]chromen-2-one] | > 10 µM | 1 to 10 µM |  |  |  |  | 
O=C(c1cc2cc(Cl)ccc2oc1=O)c1cc2cc(Cl)ccc2oc1=O [Example 6, 6-chloro-3-[(6-chloro-2-oxochromen-3-yl)carbonyl]chromen-2-one] | > 10 µM | 1 to 10 µM | > 100 µM |  |  |  | 
O=C(c1cc2cc([N+](=O)[O-])cc(Br)c2oc1=O)c1cc2cc([N+](=O)[O-])cc(Br)c2oc1=O [Example 27, 6-nitro-8-bromo-3-[(6-nitro-8-bromo-2-oxocbromen-3-yl)carbonyl]-chromen-2-one] | > 10 µM |  |  |  |  |  | 
O=C(c1cc2cc(Cl)cc(Cl)c2oc1=O)c1cc2cc(Cl)cc(Cl)c2oc1=O [Example 12, 6,8-dichloro-3-[(6,8-dichloro-2-oxochromen-3-yl)carbonyl]chromen-2-one] | 2.5 to 5 µM | > 10 µM | 10 to 25 µM |  |  |  | 
O=C(c1cc2cccc(F)c2oc1=O)c1cc2cccc(F)c2oc1=O [Example 26, 8-fluoro-3-[(8-fluoro-2-oxochromen-3-yl)carbonyl]chromen-2-one] | > 10 µM | > 10 µM |  |  |  |  | 
